Patent publication US4619942A, “Inhibition of Respiratory Syncytial virus-induced cell fusion by amidino compounds” (priority 1983, dated 1986)
Entries after “also recorded” stand apart in the source; their conditions may differ. Read-outs that look alike come from different tables or passages of the source.

Assays:
RS virus [1] = experiment: RS virus cytopathology / syncytium formation in Hep-2 cells (Table 3); conditions: for Effect on RS virus cytopathology (syncytia): added 2 hour post infection
CV-1 [2] = tested on: CV-1
BHK-21 [3] = tested on: BHK-21
A549 [4] = tested on: A549
pancreatic kallikrein = conditions: cited from earlier work
RS virus [5] = tested on: RS virus
RS virus [6] = format: cell-based, A2 strain
P-3 virus = experiment: Multiple cycle yields of P-3 virus (Table 5); format: cell-based, Parainfluenza type 3; conditions: 50 μM
Experimental: (§1) Virus yields were quantitated by calculating 50 percent end points according to the method of Reed and Muench (A simple method for estimating fifty percent end-points. Am. J. Hyg. b 27, 493-497 (1938)). Briefly, 0.05 ml of virus diluted in MEM plus 10% FCS was added to micro-titer plates. This was followed by the addition of 40,000-60,000 Hep-2 cells in a volume of 0.05 ml. Plates were incubated at 36° C. for 5-7 days. Six or eight wells were used for each dilution. Standard error analysis was done according to the method of Pizzi (Sampling variation of the fifty percent endpoint determined by the Reed-Muench (Behrens) method. Human Biol. 22, 151-180 (1950)).
(§2) For these experiments, Hep- 2 cells were infected with either RS virus or
(§3) P-3 virus at multiplicities of infection of 0.1, 0.01, or 0.001. Following
(§4) a 2 hour adsorption period, the cultures received medium with or without a
(§5) The monolayers were harvested after
(§6) multiple cycles of replication and the yields were determined in
(§7) inhibitor-free microtiter assays.

RS virus [7] = experiment: RS virus cytopathic effect in CV-1 cells; format: cell-based, A2 strain; conditions: 50 μM; 8 days post infection; over 50% of untreated monolayer destroyed
From the text: (§8) This reduction of cytopathology was even more obvious in RS virus infected CV-1 cells examined at 8 days post infection. It was observed that in untreated infected cultures over 50% of the monolayer was destroyed during the multiple cycles of RS virus growth.

RS virus [8] = experiment: Multiple cycle yields of RS virus (Table 5); format: cell-based, A2 strain; conditions: for Multiple cycle yield of RS virus, treated: 50 μM
Experimental: as §1, §2, §3, §4, §5, §6, §7

P-3 = P-3 yield in CV-1 cells maintained with compound 7; format: cell-based, Parainfluenza type 3; conditions: 50 μM for 6 days; challenged on day 6
RS virus [9] = experiment: RS yields after pretreatment of Hep-2 cells at high multiplicities of infection; format: cell-based, A2 strain
From the text: RS virus. Even at high multiplicities of infection, pretreatment of Hep-2
reduction of RS yields. The results in Table 5 also reveal that the […]

MP mutant of HSV-1 = experiment: Fusion of CV-1 cells by MP mutant of HSV-1; format: cell-based, herpes simplex type 1
From the text: A polykaryoctye-forming mutant (MP) of herpes simplex type 1 (HSV-1) was also employed.
as §8

HSV-1 = HSV-1 yield in CV-1 cells maintained with compound 7; format: cell-based, herpes simplex type 1; conditions: 50 μM for 6 days; challenged on day 6
[10] = target: plasminogen activator urokinase; conditions: cited from earlier work
A549 [11] = experiment: Toxicity on A549 cells; conditions: A549 (human lung); data not shown
CV-1 [12] = experiment: Toxicity on CV-1 cells; conditions: CV-1 (monkey kidney); data not shown
cell growth = conditions: cited from earlier work
BHK-21 [13] = experiment: Toxicity on BHK-21 cells; conditions: BHK-21 (hamster kidney); data not shown
trypsin-like enzymes = conditions: relative to benzamidine; cited from earlier work
[14] = 10 μM, moi 1-2, control titers 1-5 × 10^7

## N=C(N)c1ccc(OCc2cccc(COc3ccc(C(=N)N)cc3I)c2)c(I)c1 [Compound 6, α,α'-Bis(4-amidino-2-iodophenoxy)-m-xylene]
RS virus [1]; 0.1 μM, Hep-2
  Effect on RS virus cytopathology (syncytia): S
RS virus [1]; 1.0 μM, Hep-2
  Effect on RS virus cytopathology (syncytia): S
CV-1 [2]
  Pattern of toxicity compared with Hep-2 cells: identical pattern of toxicity
BHK-21 [3]
  Pattern of toxicity compared with Hep-2 cells: identical pattern of toxicity
A549 [4]
  Pattern of toxicity compared with Hep-2 cells: identical pattern of toxicity
Pancreatic kallikrein
  Ki: 31 nM
Hep-2 cells
  Cytotoxicity relative to other compounds (in words): as toxic as pentamidine
RS virus [5]; [14]
  Single cycle yield of RS virus (RS virus titers): 6.3 × 10^6 TCID50/ml

## N=C(N)c1ccc2nc(Cc3nc4ccc(C(=N)N)cc4[nH]3)[nH]c2c1 [Compound 7, Bis(5-amidino-2-benzimidazolyl)methane]
RS virus [1]
  Inhibition of RS virus / RS virus-induced cell fusion (general statement): inhibitively effective against RS virus
RS virus [1]; 0.1 μM, Hep-2
  Effect on RS virus cytopathology (syncytia): S
RS virus [1]; 1.0 μM, moi 1-2, 40 hrs post infection
  Fusion of RS virus-infected cells (morphology): abolition of fusion
RS virus [1]; HEp-2, read-out: Lowest concentration inhibiting syncytium formation
  minimal effective concentration: 1 µM
RS virus [6]; 50 μM, RSI series vs C series
  Behavior of RS virus replicated in presence of inhibitor versus control: did not behave differently from the control
RS virus [6]; compound 7: 50 μM
  Effect on RS virus penetration (in words): penetration was delayed to a similar degree
RS virus [6]; titer #1: RSI + I + A, 50 μM
  RS virus titer, TCID50 (Log 10): 4.11 TCID50 (Log 10)
RS virus [6]; titer #2: RSI + I + A (so in the source), 50 μM
  RS virus titer, TCID50 (Log 10): 5.97 TCID50 (Log 10)
RS virus [6]; titer #3: RSI - I + A, virus grown with 50 μM, none during adsorption
  RS virus titer, TCID50 (Log 10): 5.50 TCID50 (Log 10)
RS virus [6]; titer #4: RSI - I + A (so in the source), virus grown with 50 μM, none during adsorption
  RS virus titer, TCID50 (Log 10): 5.97 TCID50 (Log 10)
RS virus [6]; titer #5: C + I + A, untreated control #7 (C - I + A) 6.73
  RS virus titer, TCID50 (Log 10): 5.59 TCID50 (Log 10)
RS virus [6]; titer #6: C + I - A, untreated control #8 (C - I + A as printed) 6.97
  RS virus titer, TCID50 (Log 10): 6.92 TCID50 (Log 10)
CV-1 [2]
  Pattern of toxicity compared with Hep-2 cells: identical pattern of toxicity
P-3 virus; low moi
  Effect on yield of P-3 virus (in words): slight, but consistent decrease
P-3 virus; moi 0.001, harvested 72 hr post infection, control 2.0 × 10^8
  Multiple cycle yield of P-3 virus, treated: 6.3 × 10^7 TCID50 /ml
P-3 virus; moi 0.01, harvested 48 hr post infection, control 7.9 × 10^7
  Multiple cycle yield of P-3 virus, treated: 4.6 × 10^7 TCID50 /ml
P-3 virus; moi 0.1, harvested 48 hr post infection, control 3.5 × 10^8
  Multiple cycle yield of P-3 virus, treated: 7.9 × 10^7 TCID50 /ml
RS virus [7]
  RS virus cytopathic effect in CV-1 cells: preservation of the monolayer with individual foci of infection appearing to be inhibited in their spread to uninfected areas of the culture
BHK-21 [3]
  Pattern of toxicity compared with Hep-2 cells: identical pattern of toxicity
A549 [4]
  Pattern of toxicity compared with Hep-2 cells: identical pattern of toxicity
RS virus [8]; moi 0.001, harvested 120 hr post infection, control 2.8 × 10^6
  Multiple cycle yield of RS virus, treated: 1.1 × 10^4 TCID50 /ml
RS virus [8]; moi 0.01, harvested 120 hr post infection, control 3.2 × 10^7
  Multiple cycle yield of RS virus, treated: 1.2 × 10^5 TCID50 /ml
RS virus [8]; moi 0.1, harvested 72 hr post infection, control 5.0 × 10^7
  Multiple cycle yield of RS virus, treated: 6.3 × 10^6 TCID50 /ml
RS virus [8]; compound 7: 50 μM, low moi
  Effect on multiple cycle yields / spreading of RS virus (in words): considerably less; also recorded: greatly reduced the spreading
P-3
  P-3 yield after prolonged exposure of CV-1 cells: normal yields
RS virus [9]
  log reduction at 50 µM: 1 to 2
MP mutant of HSV-1
  Effect on ability of MP mutant of HSV-1 to fuse cells: no effect
RS virus [5]; 50 μM, moi 1-2, control titers 1-5 × 10^7
  Single cycle yield of RS virus (RS virus titers): 6.3 × 10^7 TCID50/ml
RS virus [5]; 500 μM, moi 1-2, control titers 1-5 × 10^7
  Single cycle yield of RS virus (RS virus titers): 2.0 × 10^7 TCID50/ml
HSV-1
  HSV-1 yield after prolonged exposure of CV-1 cells: normal yields

## N=C(N)c1ccc(OCCC(O)COc2ccc(C(=N)N)cc2)cc1 (centres unmarked) [Compound 5, 1,4-Di(4-amidinophenoxy)-2-butanol]
RS virus [1]
  Inhibition of RS virus / RS virus-induced cell fusion (general statement): inhibitively effective against RS virus
RS virus [1]; 0.1 μM, Hep-2
  Effect on RS virus cytopathology (syncytia): S
RS virus [1]; 1.0 μM, Hep-2
  Effect on RS virus cytopathology (syncytia): S
RS virus [1]; Hep-2
  Suppression of RS virus syncytia (in words): suppressed the appearance of the characteristic syncytia
RS virus [5]; [14]
  Single cycle yield of RS virus (RS virus titers): 0.5 × 10^7 TCID50/ml
RS virus [5]; 100 μM, moi 1-2, control titers 1-5 × 10^7
  Single cycle yield of RS virus (RS virus titers): 5.0 × 10^5 TCID50/ml
[10]
  Ki: 3200 nM

## N=C(N)c1ccc(OCCCCCOc2ccc(C(=N)N)cc2)cc1 [Compound 2, Pentamidine]
RS virus [1]; 0.1 μM, Hep-2
  Effect on RS virus cytopathology (syncytia): S
RS virus [1]; 1.0 μM, Hep-2
  Effect on RS virus cytopathology (syncytia): S
A549 [11]
  Pattern of toxicity compared with Hep-2 cells: identical pattern of toxicity
CV-1 [12]
  Pattern of toxicity compared with Hep-2 cells: identical pattern of toxicity
Cell growth
  Concentration reducing cell growth rates: 5 to 40 µM
BHK-21 [13]
  Pattern of toxicity compared with Hep-2 cells: identical pattern of toxicity
RS virus [5]
  Single cycle yield of RS virus (RS virus titers): 6.3 × 10^4 TCID50/ml
trypsin-like enzymes
  Effectiveness against trypsin-like enzymes versus benzamidine: generally an order of magnitude more effective than benzamidine
